The assay relates to L1210 leukemia ip in BDF1 mice, survival T/C. In words: NCI In Vivo Anticancer Drug Screen. Data for tumor model L1210 Leukemia (intraperitoneal) in B6D2F1 (BDF1) mice. Particulars: endpoint: mean survival time, higher = longer survival. The gist of the method:
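Read-out is survival time, reported as the treated-group measurement over the vehicle-control measurement.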

Setting [1] is: dose: 100.0 mg/kg/injection, schedule: Q01DX009 (ip), vehicle: saline with Tween-80.
The mark [2] stands for this setting: dose: 200.0 mg/kg/injection, schedule: Q01DX009 (ip), vehicle: saline with Tween-80.
[3] abbreviates: dose: 400.0 mg/kg/injection, schedule: Q01DX009 (ip), vehicle: saline with Tween-80.
Where [4] appears, read: dose: 100.0 mg/kg/injection, schedule: Q01DX001 (ip), vehicle: carboxymethylcellulose (CMC).
Where [5] appears, read: dose: 200.0 mg/kg/injection, schedule: Q01DX001 (ip), vehicle: carboxymethylcellulose (CMC).
Where [6] appears, read: dose: 75.0 mg/kg/injection, schedule: Q01DX001 (ip), vehicle: saline.
Where [7] appears, read: dose: 150.0 mg/kg/injection, schedule: Q01DX001 (ip), vehicle: saline.
Setting [8] is: dose: 300.0 mg/kg/injection, schedule: Q01DX001 (ip), vehicle: saline.
The mark [9] stands for this setting: dose: 100.0 mg/kg/injection, schedule: Q04DX003 (ip), vehicle: saline with Tween-80.
The mark [10] stands for this setting: dose: 200.0 mg/kg/injection, schedule: Q04DX003 (ip), vehicle: saline with Tween-80.
Where [11] appears, read: dose: 400.0 mg/kg/injection, schedule: Q04DX003 (ip), vehicle: saline with Tween-80.
Where [12] appears, read: dose: 200.0 mg/kg/injection, schedule: Q04DX003 (ip), vehicle: Klucel (hydroxypropylcellulose) (HPC).
Where [13] appears, read: dose: 100.0 mg/kg/injection, schedule: Q04DX002 (ip), vehicle: Klucel (hydroxypropylcellulose) (HPC).
Setting [14] is: dose: 200.0 mg/kg/injection, schedule: Q04DX002 (ip), vehicle: Klucel (hydroxypropylcellulose) (HPC).
Where [15] appears, read: dose: 400.0 mg/kg/injection, schedule: Q04DX002 (ip), vehicle: Klucel (hydroxypropylcellulose) (HPC).
[16] abbreviates: dose: 50.0 mg/kg/injection, schedule: Q01DX009 (ip), vehicle: saline with Tween-80.

“And” between values parts separate entries of the source, which are not always exact repeats. Identical values can stand only once. Toxic doses and inconclusive results are not listed.

This passage reports T/C results from PubChem BioAssay AID248 (DTP/NCI, 2004).

As for `CCCCCC1OC1CC1OC1CCCCCCCC(=O)OC` (stereo not given), the T/C was 109 % of control (dose: 100.0 mg/kg/injection, schedule: Q01DX001 (ip), vehicle: saline); 95 % of control (dose: 200.0 mg/kg/injection, schedule: Q01DX001 (ip), vehicle: saline); 102 % of control (dose: 400.0 mg/kg/injection, schedule: Q01DX001 (ip), vehicle: saline).

Turning to `ClCc1csc(-c2ccccc2)n1`, the T/C is, setting by setting: under setting [1], 115 % of control; under setting [2], 94 % of control; under setting [3], 92 % of control.

As to `Nc1ncnc2c1ncn2C1OC(CO)C(S)C1O` (stereo not given), the T/C by setting is: under setting [4], 105 % of control; under setting [5], 92 % of control.

As to `CNC(=O)N/N=C(C)\C=N\NC(=O)NC`, the T/C was 97 % of control under setting [6], 108 % of control under setting [7] and 92 % of control under setting [8].

With `O=C1CC(CO)CN1CCc1ccccc1` (stereo not given), the T/C under setting [9] is 96 % of control, the T/C under setting [10] is 94 % of control and the T/C under setting [11] was 96 % of control.

As for `O=C(O)/C=C/C(=O)Nc1cc(Cl)cc2c1-c1c(Cl)cc(Cl)cc1C2=O`, the T/C by setting is: (dose: 50.0 mg/kg/injection, schedule: Q01DX009 (ip), vehicle: saline) 94 % of control; (dose: 100.0 mg/kg/injection, schedule: Q01DX009 (ip), vehicle: saline) 94 % of control; (dose: 100.0 mg/kg/injection, schedule: Q04DX003 (ip), vehicle: Klucel (hydroxypropylcellulose) (HPC)) 98 % of control; (dose: 200.0 mg/kg/injection, schedule: Q01DX009 (ip), vehicle: saline) 96 % of control; under setting [12], 98 % of control.

Consider `CC1(C)CC(OP(OC2CC(C)(C)N(O)C(C)(C)C2)OC2CC(C)(C)N(O)C(C)(C)C2)CC(C)(C)N1O`, for which the T/C by setting is: (dose: 100.0 mg/kg/injection, schedule: Q01DX001 (ip), vehicle: water) 100 % of control; (dose: 200.0 mg/kg/injection, schedule: Q01DX001 (ip), vehicle: water) 94 % of control; (dose: 400.0 mg/kg/injection, schedule: Q01DX001 (ip), vehicle: water) 94 % of control.

Consider `O=C(/C=C/c1ccco1)c1ccc(F)cc1`, for which the T/C is, setting by setting: under setting [6], 94 % of control; under setting [7], 98 % of control; under setting [8], 102 % of control.

For the compound `CCOC(=O)CN1CCC(C(=O)OCC)CC1`, the T/C is 106 % of control (dose: 50.0 mg/kg/injection, schedule: Q01DX001 (ip), vehicle: carboxymethylcellulose (CMC)); 97 % of control under setting [4]; 103 % of control under setting [5]; 106 % of control (dose: 400.0 mg/kg/injection, schedule: Q01DX001 (ip), vehicle: carboxymethylcellulose (CMC)).

In the case of `NC(=O)/C=C/C(=O)O`, the T/C is 97 % of control (dose: 100.0 mg/kg/injection, schedule: Q01DX001 (ip), vehicle: saline with Tween-80); 98 % of control and 101 % of control under setting [1]; 88 % of control under setting [13]; 94 % of control and 97 % of control (dose: 100.0 mg/kg/injection, schedule: Q04DX002 (ip), vehicle: saline with Tween-80); 92 % of control under setting [9]; 108 % of control (dose: 200.0 mg/kg/injection, schedule: Q01DX001 (ip), vehicle: saline with Tween-80). Moreover, the T/C was 98 % of control and 116 % of control under setting [2]; 88 % of control under setting [14]; 97 % of control and 99 % of control (dose: 200.0 mg/kg/injection, schedule: Q04DX002 (ip), vehicle: saline with Tween-80); 106 % of control under setting [10]; 96 % of control (dose: 400.0 mg/kg/injection, schedule: Q01DX001 (ip), vehicle: saline with Tween-80); 91 % of control under setting [15]. The T/C was 90 % of control (dose: 400.0 mg/kg/injection, schedule: Q04DX002 (ip), vehicle: saline with Tween-80) and 94 % of control under setting [11].

As for `CCCCN(c1ccccc1)c1ncnc2c1cnn2C`, the T/C is, setting by setting: under setting [16], 100 % of control; under setting [1], 102 % of control and 104 % of control; under setting [9], 97 % of control; under setting [2], 98 % of control and 105 % of control; under setting [10], 96 % of control; under setting [11], 94 % of control.

On to `FC(F)(F)c1cccc(NC(=S)N/N=C/c2ccccc2)c1`, for which the T/C under setting [1] was 92 % of control, the T/C under setting [2] is 97 % of control and the T/C under setting [3] is 94 % of control.

In the case of `CC1CC2C(CC1=O)C(C)(C)CCC2(C)C` (stereo not given), the T/C reads like this: (dose: 100.0 mg/kg/injection, schedule: Q01DX009 (ip), vehicle: Klucel (hydroxypropylcellulose) (HPC)) 92 % of control; (dose: 200.0 mg/kg/injection, schedule: Q01DX009 (ip), vehicle: Klucel (hydroxypropylcellulose) (HPC)) 94 % of control; under setting [12], 107 % of control; (dose: 400.0 mg/kg/injection, schedule: Q01DX009 (ip), vehicle: Klucel (hydroxypropylcellulose) (HPC)) 90 % of control; (dose: 400.0 mg/kg/injection, schedule: Q04DX003 (ip), vehicle: Klucel (hydroxypropylcellulose) (HPC)) 91 % of control.

As for `Cc1c(C#N)c2n(c1C)CCCC(=O)N2`, the T/C under setting [16] was 91 % of control; the T/C (dose: 50.0 mg/kg/injection, schedule: Q04DX003 (ip), vehicle: saline with Tween-80) is 101 % of control; the T/C under setting [1] is 90 % of control; the T/C under setting [9] was 88 % of control; the T/C under setting [2] is 91 % of control; the T/C under setting [10] was 97 % of control. In addition, the T/C under setting [3] was 88 % of control and the T/C under setting [11] was 92 % of control.

In the case of `O=C(Nc1ccc(C2=NCCN2)cc1)c1ccc(CNc2ccc(C3=NCCN3)cc2)cc1`, the T/C was 93 % of control (dose: 0.5 mg/kg/injection, schedule: Q01DX Z (ip), vehicle: water); 96 % of control (dose: 1.0 mg/kg/injection, schedule: Q01DX Z (ip), vehicle: water); 113 % of control (dose: 2.0 mg/kg/injection, schedule: Q01DX Z (ip), vehicle: water); 111 % of control (dose: 4.0 mg/kg/injection, schedule: Q01DX Z (ip), vehicle: water); 159 % of control (dose: 6.25 mg/kg/injection, schedule: Q01DX Z (ip), vehicle: water); 276 % of control (dose: 12.5 mg/kg/injection, schedule: Q01DX Z (ip), vehicle: water). In addition, the T/C (dose: 25.0 mg/kg/injection, schedule: Q01DX Z (ip), vehicle: water) was 188 % of control.

As to `CC1C(N2CCCCC2)N(C(=O)c2ccccc2)SC12c1ccccc1-c1ccccc12` (stereo not given), the T/C runs as follows: under setting [13], 94 % of control; under setting [14], 102 % of control; under setting [15], 102 % of control.
